Where two headings read alike, the source gives them in different places.
Experiments:
[1] = target: T1, human A3 adenosine receptors (Homo sapiens, UniProt P0DMS8); settings: for A1/A3: ratio Ki(A1)/Ki(A3), agonist radioligands
T1 sequence (P0DMS8 1-318): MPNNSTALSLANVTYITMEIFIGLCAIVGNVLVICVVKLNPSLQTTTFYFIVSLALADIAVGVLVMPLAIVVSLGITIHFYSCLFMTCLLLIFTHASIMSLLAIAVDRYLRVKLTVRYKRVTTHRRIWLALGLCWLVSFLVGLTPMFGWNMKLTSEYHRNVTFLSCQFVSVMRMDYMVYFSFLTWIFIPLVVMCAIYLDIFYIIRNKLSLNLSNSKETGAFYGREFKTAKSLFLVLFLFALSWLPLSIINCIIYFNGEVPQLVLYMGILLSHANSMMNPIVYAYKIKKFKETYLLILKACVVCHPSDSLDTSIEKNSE

[2] = target: T2, human A2A adenosine receptors (Homo sapiens, UniProt P29274); assay: Displacement of [^3H]CGS21680 binding, human A2A adenosine receptors in CHO cells (agonist radioligand); settings: read-out: Ki(A2A). Displacement of [^3H]CGS21680 binding to human A2A adenosine receptors exp. in CHO cells.
T2 construct: expressed in transfected cells; host or cells: CHO cells

[3] = target: T3, human A1 adenosine receptors (Homo sapiens, UniProt P30542); assay: Displacement of [^3H]CHA binding, human A1 adenosine receptors in CHO cells (agonist radioligand)
T3 sequence (P30542 1-326): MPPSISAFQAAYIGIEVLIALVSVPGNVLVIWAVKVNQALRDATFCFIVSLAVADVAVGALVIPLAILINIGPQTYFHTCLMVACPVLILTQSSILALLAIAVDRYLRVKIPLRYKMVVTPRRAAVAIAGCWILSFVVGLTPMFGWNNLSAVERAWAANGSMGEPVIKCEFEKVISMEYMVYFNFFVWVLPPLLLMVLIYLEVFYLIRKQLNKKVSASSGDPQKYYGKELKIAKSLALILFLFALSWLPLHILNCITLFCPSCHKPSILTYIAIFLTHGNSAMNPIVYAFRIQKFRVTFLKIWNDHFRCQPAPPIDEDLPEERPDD

[4] = human A2A, CHO cells, [^3H]CGS21680

T2 sequence (P29274 whole entry): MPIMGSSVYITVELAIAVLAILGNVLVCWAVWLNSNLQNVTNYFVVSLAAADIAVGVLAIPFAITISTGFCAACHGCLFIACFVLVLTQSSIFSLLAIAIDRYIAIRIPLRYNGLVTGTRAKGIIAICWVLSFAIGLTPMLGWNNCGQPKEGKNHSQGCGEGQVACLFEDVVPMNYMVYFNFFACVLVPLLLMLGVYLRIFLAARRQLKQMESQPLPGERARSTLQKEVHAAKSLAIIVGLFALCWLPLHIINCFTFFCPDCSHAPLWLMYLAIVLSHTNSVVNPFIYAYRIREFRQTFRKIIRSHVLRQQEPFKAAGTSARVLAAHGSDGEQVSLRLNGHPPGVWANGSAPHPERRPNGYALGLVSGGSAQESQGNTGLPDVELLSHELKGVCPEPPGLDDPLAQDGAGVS

SMILES	melting point	further results
CCCN(CCC)S(=O)(=O)c1ccc(NC(=O)Nc2ncnc3c2ncn3[C@@H]2O[C@H](C(=O)NCC)[C@@H](O)[C@H]2O)cc1 [Compound 102, 1-Deoxy-1-[6-[[[[4-[N,N-bis(propyl)aminosulfonyl]phenyl]amino]-carbo-nyl]amino]-9H-purin-9-yl]-N-ethyl-β-D-ribofuranuronamide]	–	Ki [1]: 14 nM; Ki [2, 4]: > 1000 nM; Ki [3]: 350 nM
CCNC(=O)[C@H]1O[C@@H](n2cnc3c(NC(=O)Nc4ccc(S(=O)(=O)N(C)C(C)C)cc4)ncnc32)C(O)C1O (stereo partly drawn) [Compound 97, 1-Deoxy-1-[6-[[[[4-[N-(1-methylethyl)-N-(methyl)-aminosulfonyl]phenyl]amino]carbo-nyl]amino]-9H-purin-9-yl]-N-ethyl-β-D-ribofuranuronamide]	140 °C	–
C=CCN(CC=C)S(=O)(=O)c1ccc(NC(=O)Nc2ncnc3c2ncn3[C@@H]2O[C@H](C(=O)NCC)[C@@H](O)[C@H]2O)cc1 [Compound 99, 1-Deoxy-1-[6-[[[[4-[N,N-bis(allyl)amino-sulfonyl]phenyl]amino]carbonyl]amino]-9H-purin-9-yl]-N-ethyl-β-D-ribofuranuronamide]	126 °C	Ki [1]: 10 nM; A1/A3 [1]: 38; Ki [2, 4]: > 1000 nM; Ki [3]: 380 nM
CCNC(=O)[C@H]1O[C@@H](n2cnc3c(NC(=O)Nc4ccccc4S(=O)(=O)Nc4ccc(OC)cc4)ncnc32)C(O)C1O (stereo partly drawn) [Compound 103, 1-Deoxy-N-ethyl-1-[[6-[[[2-N-(4-methoxyphenyl)-sulfonamidophenyl]amino]carbonyl]amino]-9H-purin-9-yl]-b-D-ribofuran-uronamide]	168 to 170 °C	–
CCNC(=O)[C@H]1O[C@@H](n2cnc3c(NC(=O)Nc4ccccc4S(=O)(=O)N4CC=CC4)ncnc32)C(O)C1O (stereo partly drawn) [Compound 110, 1-Deoxy-N-ethyl-1-[[6-[[[2-(2,5-dihydropyrrol-1-yl)sulfonylphenyl]amino]carbonyl]amino]-9H-purin-9-yl]-b-D-ribofuranuronamide]	149 to 151 °C	–
CCNC(=O)[C@H]1O[C@@H](n2cnc3c(NC(=O)Nc4ccc(S(=O)(=O)NC5C=CCC5)cc4)ncnc32)[C@H](O)[C@@H]1O (stereo partly shown) [Compound 101]	–	A1/A3 [1]: 13.16; Ki [2]: > 1000 nM; Ki ([3]; read-out: Ki(A1). Displacement of [^3H]CHA binding to human A1 adenosine receptors exp. in CHO cells., human A1, CHO cells, [^3H]CHA, confidence limits in parentheses): 250 nM
CCNC(=O)[C@H]1O[C@@H](n2cnc3c(NC(=O)Nc4ccccc4S(=O)(=O)N(C)C(C)C)ncnc32)C(O)C1O (stereo partly drawn) [Compound 107, 1-Deoxy-N-ethyl-1-[[6-[[[2-N-(isopropyl)-N-(methyl)-sulfonamidophenyl]amino]carbonyl]amino]-9H-purin-9-yl]-b-D-ribofuranuron-amide]	142 to 144 °C	–
CCNC(=O)[C@H]1O[C@@H](n2cnc3c(NC(=O)Nc4cccc(S(=O)(=O)NC56C[C@H]7C[C@@H](C5)C[C@@H](C6)C7)c4)ncnc32)C(O)C1O (stereo partly drawn) [Compound 113, 1-Deoxy-N-ethyl-1-[[6-[[[3-N-(adamantan-1-yl)-sulfonamidophenyl]amino]carbonyl]amino]-9H-purin-9-yl]-b-D-ribofuran-uronamide]	188 to 189 °C	–
CCNC(=O)[C@H]1O[C@@H](n2cnc3c(NC(=O)Nc4ccccc4S(=O)(=O)NC45C[C@H]6C[C@@H](C4)C[C@@H](C5)C6)ncnc32)C(O)C1O (stereo partly drawn) [Compound 109, 1-Deoxy-N-ethyl-1-[[6-[[[2-N-(adamantan-1-yl)-sulfonamidophenyl]amino]carbonyl]amino]-9H-purin-9-yl]-b-D-ribofuran-uronamide]	159 to 161 °C	–

Now from value to compound, other results behind:

melting point	SMILES	further results
168 °C	CCNC(=O)[C@H]1O[C@@H](n2cnc3c(NC(=O)Nc4ccc(S(=O)(=O)N(CC)CC)cc4)ncnc32)[C@H](O)[C@@H]1O [Compound 100, 1-Deoxy-1-[6-[[[[4-[N,N-bis(ethyl)amino-sulfonyl]phenyl]amino]carbonyl]amino]-9H-purin-9-yl]-N-ethyl-β-D-ribofuranuronamide]	Ki [2, 4]: > 1000 nM
188 to 189 °C	CCNC(=O)[C@H]1O[C@@H](n2cnc3c(NC(=O)Nc4ccccc4S(N)(=O)=O)ncnc32)C(O)C1O (stereo partly drawn) [Compound 106, 1-Deoxy-N-ethyl-1-[[6-[[(2-sulfonamidophenyl)amino]-carbonyl]amino]-9H-purin-9-yl]-b-D-ribofuranuronamide]	–
158 to 159 °C	CCCCCNS(=O)(=O)c1cccc(NC(=O)Nc2ncnc3c2ncn3[C@@H]2O[C@H](C(=O)NCC)C(O)C2O)c1 (stereo partly drawn) [Compound 104, 1-Deoxy-N-ethyl-1-[[6-[[[3-N-(pentyl)-sulfonamido-phenyl]amino]carbonyl]amino]-9H-purin-9-yl]-b-D-ribofuranuronamide]	–
155 to 157 °C	CCCCCNS(=O)(=O)c1ccccc1NC(=O)Nc1ncnc2c1ncn2[C@@H]1O[C@H](C(=O)NCC)C(O)C1O (stereo partly drawn) [Compound 108, 1-Deoxy-N-ethyl-1-[[6-[[[2-N-(pentyl)-sulfonamido-phenyl]amino]carbonyl]amino]-9H-purin-9-yl]-b-D-ribofuranuronamide]	–
206 to 208 °C (dec.)	CCNC(=O)[C@H]1O[C@@H](n2cnc3c(NC(=O)Nc4cccc(S(=O)(=O)Nc5ccc(OC)cc5)c4)ncnc32)C(O)C1O (stereo partly drawn) [Compound 105, 1-Deoxy-N-ethyl-1-[[6-[[[3-N-(4-methoxyphenyl)-sulfonamidophenyl]amino]carbonyl]amino]-9H-purin-9-yl]-b-D-ribofuran-uronamide]	–
176 °C	CCNC(=O)[C@H]1O[C@@H](n2cnc3c(NC(=O)Nc4ccc(S(=O)(=O)N(C)C)cc4)ncnc32)C(O)C1O (stereo partly drawn) [Compound 98, 1-Deoxy-1-[6-[[[[4-[N,N-(dimethyl)amino-sulfonyl]phenyl]amino]carbonyl]amino]-9H-purin-9-yl]-N-ethyl-β-D-ribofuranuronamide]	Ki [2, 4]: > 1000 nM; Ki [3]: 280 nM
145 to 146 °C	CCNC(=O)[C@H]1O[C@@H](n2cnc3c(NC(=O)Nc4cccc(S(=O)(=O)N5CC=CC5)c4)ncnc32)C(O)C1O (stereo partly drawn) [Compound 114, 1-Deoxy-N-ethyl-1-[[6-[[[3-(2,5-dihydropyrrol-1-yl)sulfonylphenyl]amino]carbonyl]amino]-9H-purin-9-yl]-b-D-ribofuranuronamide]	–
147 to 148 °C	CCNC(=O)[C@H]1O[C@@H](n2cnc3c(NC(=O)Nc4cccc(S(=O)(=O)N(C)C(C)C)c4)ncnc32)C(O)C1O (stereo partly drawn) [Compound 112, 1-Deoxy-N-ethyl-1-[[6-[[[3-N-(isopropyl)-N-(methyl)-sulfonamidophenyl]amino]carbonyl]amino]-9H-purin-9-yl]-b-D-ribofuranuron-amide]	–
